Where two headings read alike, the source gives them in different places.
Tests used:
[1] = test system: H1975 (L858R and T790M double mutation) cells; test: Analysis of synergistic effect with EGFR inhibitor (Chou-Talalay), H1975 proliferation; type: cell-based; conditions: combination with AZD9291, H1975 cells, 72 hr, Chou-Talalay index method
Protocol: 5. Analysis of Synergistic Effect
H1975 (L858R and T790M double mutation) cells were cultured in RPMI-1640 medium containing 10% FBS and 1% P/S ([…]). In the testing of the compounds, H1975 cells were seeded in 96-well plate (Corning, Cat #3917) at 3000 cell/well and the compounds were added at 195 μL solution/well. The initial test concentration of the compound was 10 μM, 3-fold gradient diluted to obtain 11 samples. 4 μL of each sample was added to 96 μL RPMI-1640 medium to dilute the 25× Compound. 5 μL was added to 195 μL cell medium (the final concentration of DMSO is 0.1%, v/v). After 72 hr incubation, 35 μL of CellTiter-Blue® (Promega, Cat #G8082) was added to the cells. The fluorescence signal was measured with FlexStation 3 (Molecular Devices) according to the instructions, and the IC50 value of the compound on cell proliferation inhibition was calculated by Graphpad Grism 5.0 software. The Chou-Talalay index method was used to analyze the effect of the combination. 0.9≤Combination Index (CI)≤1.1 means additive effect, 0.8≤CI<0.9 means low synergistic effect, 0.6≤CI<0.8 means medium synergistic effect, 0.4≤CI<0.6 means high synergistic effect, 0.2≤CI<0.4 means strong synergistic effect.

TRKC = TRKC (Homo sapiens (Human), UniProt Q16288); test: Mobility shift assay, TRKC kinase; conditions: read-out: TRKC IC50, ATP 44.4 μM
Ba/F3 ETV6-NTRK2-G639R = test: Cell proliferation inhibition (CellTiter-Glo), Ba/F3 ETV6-NTRK2-G639R; type: cell-based; conditions: Mus musculus, BaF3, 72 h, 72 hrs, read-out: IC50 proliferation Ba/F3 ETV6-NTRK2-G639R
Protocol: 4. Inhibitory Effect of Compounds on the Proliferation of TRK Fusion and Mutant Stable Cell Lines (IC50)
Six cell lines including Ba/F3 LMNA-NTRK1-WT, Ba/F3 LMNA-NTRK1-G595R, Ba/F3 ETV6-NTRK2-WT, Ba/F3 ETV6-NTRK2-G639R, Ba/F3 ETV6-NTRK2-G639R and Ba/F3 ETV6-NTRK3-G623R were used in this experiment. For the six cell lines, the maximum test concentration of the compound was 1 μM, 1 μM, 10 μM, […], 1 μM and 10 μM, were 3.16-fold gradient diluted to obtain 9 samples.
The operation is described briefly as follows:
The cells in logarithmic growth phase were harvested to ensure that the cell viability was above 90%. 3000 cell/well were seeded in 96-well plate (Corning, Cat #3603). The cells were incubated overnight with 5% CO2, 95% humidity at 37° C. Then each well containing the cells of the 96-well plate was added the compound solutions, 3 wells for each compound solution, and continued to incubate for another 72 hrs. Then CellTiter-Glo® kit (Promega, Cat #G7572) was used to do the detection. First, the CTG reagent was melted and the cell plate was balanced to room temperature. The same volume of CTG solution was added into each well and vibrated on the shaker for 5 minutes to lyse the cells. The cell plate was kept at room temperature for 20 minutes to stabilize the luminescent signal. The luminescent value was collected by SpectraMax microplate detector (MD, 2104-0010A). […] Cell survival rate (%)=(1umdrug−1ummedium)/(1umcell−lummedium)×100%

[2] = Blood-to-brain distribution in rats; type: in vivo; conditions: male, SD, rat, 10 mg/kg single oral gavage
Protocol: 7. Blood-to-Brain Distribution
Male SD rats were grouped, each group having 12 rats. Each group was given the compound of Examples (10 mg/kg) by single oral gavage. The animals were fasted overnight from 10 hours before administration to 4 hours after administration. The rats were killed at 0.5, 1, 4 and 12 hours after administration, and blood and brain tissues were collected. The samples were centrifuged at 4000 rpm at 4° C. for 5 min and plasma was transferred into the centrifuge tube and stored at −80° C. until analysis. The extract from the plasma extracted by protein precipitation was analyzed by LC/MS/MS.

ALK-L1196M = ALK-L1196M (Homo sapiens (Human), UniProt Q9UM73, L1196M); test: HTRF kinase activity assay, ALK-L1196M; type: biochemical; conditions: 30 μM ATP
Protocol: (§1) The IC50 values of the compounds were calculated using XLFIT5 (IDBS) software.

TRKA = TRKA (Homo sapiens (Human), UniProt P04629); test: HTRF kinase activity assay, TRKA; type: biochemical; conditions: 90 μM ATP
Protocol: as §1

TRKB = TRKB (Homo sapiens (Human), UniProt Q16620); test: Mobility shift assay, TRKB kinase; conditions: read-out: TRKB IC50, ATP 71.2 μM
TRKB, sequence (Q16620 32-822): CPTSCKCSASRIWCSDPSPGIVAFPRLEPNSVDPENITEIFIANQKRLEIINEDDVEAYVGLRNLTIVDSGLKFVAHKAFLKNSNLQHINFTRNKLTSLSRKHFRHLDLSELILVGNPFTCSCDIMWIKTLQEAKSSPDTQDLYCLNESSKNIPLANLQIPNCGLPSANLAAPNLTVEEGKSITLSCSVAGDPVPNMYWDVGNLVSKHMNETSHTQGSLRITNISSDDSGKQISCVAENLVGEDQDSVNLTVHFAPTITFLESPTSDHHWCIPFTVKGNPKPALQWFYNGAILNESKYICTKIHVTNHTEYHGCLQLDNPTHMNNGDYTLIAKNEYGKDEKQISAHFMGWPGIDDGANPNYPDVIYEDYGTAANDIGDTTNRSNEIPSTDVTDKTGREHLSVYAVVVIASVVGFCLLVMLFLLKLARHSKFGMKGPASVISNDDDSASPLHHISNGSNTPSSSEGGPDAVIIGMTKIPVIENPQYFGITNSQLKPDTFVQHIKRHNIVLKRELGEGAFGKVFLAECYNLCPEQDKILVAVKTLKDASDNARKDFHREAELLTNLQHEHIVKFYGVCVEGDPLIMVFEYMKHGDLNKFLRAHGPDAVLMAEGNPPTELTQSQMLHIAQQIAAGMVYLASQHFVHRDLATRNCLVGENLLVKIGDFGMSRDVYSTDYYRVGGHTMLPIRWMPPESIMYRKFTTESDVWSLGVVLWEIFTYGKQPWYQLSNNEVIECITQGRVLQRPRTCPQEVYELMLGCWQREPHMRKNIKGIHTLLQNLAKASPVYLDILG
Protocol: The inhibitory activity of compounds on TRKA, TRKB, TRKC and ROS1 kinase was analyzed with Mobility shift assay. The screening platform is MSA based microfluidic chip technology, which applies the basic concept of capillary electrophoresis to microfluidic environment. The substrate used in the experiment is a poly-peptide labeled with fluorescent. Under the catalysis of enzyme in the reaction system, the substrate is transformed into a product, with the charge changed accordingly. MSA technology could detect the substrate and the product with different charge separately.
The operation is described as follows:
The compound powder was dissolved in 100% DMSO (Sigma, Cat. D8418-1l) to prepare a 10 mM storage solution. […] The reaction was carried out at room temperature for 30 min/40 min/20 min/20 min respectively. After the reaction was terminated, the conversion rate was read by Caliper EZ Reader II.
Conversion %_Sample: conversion rate of sample;
Conversion %_Min: mean value of negative control, representing the conversion rate without enzyme activity;
Conversion %_Max: mean value of positive control, which represents the conversion rate reading without compound inhibition.
Taking the log value of concentration as X axis and the percentage inhibition rate as Y axis, the dose response curve was fitted by the analysis software GraphPad Prism 5, thus the IC50 value of each compound on enzyme activity inhibition was obtained.

TRKC, sequence (Q16288 other isoform, or with tags, fused parts or gaps isoform Q16288-3): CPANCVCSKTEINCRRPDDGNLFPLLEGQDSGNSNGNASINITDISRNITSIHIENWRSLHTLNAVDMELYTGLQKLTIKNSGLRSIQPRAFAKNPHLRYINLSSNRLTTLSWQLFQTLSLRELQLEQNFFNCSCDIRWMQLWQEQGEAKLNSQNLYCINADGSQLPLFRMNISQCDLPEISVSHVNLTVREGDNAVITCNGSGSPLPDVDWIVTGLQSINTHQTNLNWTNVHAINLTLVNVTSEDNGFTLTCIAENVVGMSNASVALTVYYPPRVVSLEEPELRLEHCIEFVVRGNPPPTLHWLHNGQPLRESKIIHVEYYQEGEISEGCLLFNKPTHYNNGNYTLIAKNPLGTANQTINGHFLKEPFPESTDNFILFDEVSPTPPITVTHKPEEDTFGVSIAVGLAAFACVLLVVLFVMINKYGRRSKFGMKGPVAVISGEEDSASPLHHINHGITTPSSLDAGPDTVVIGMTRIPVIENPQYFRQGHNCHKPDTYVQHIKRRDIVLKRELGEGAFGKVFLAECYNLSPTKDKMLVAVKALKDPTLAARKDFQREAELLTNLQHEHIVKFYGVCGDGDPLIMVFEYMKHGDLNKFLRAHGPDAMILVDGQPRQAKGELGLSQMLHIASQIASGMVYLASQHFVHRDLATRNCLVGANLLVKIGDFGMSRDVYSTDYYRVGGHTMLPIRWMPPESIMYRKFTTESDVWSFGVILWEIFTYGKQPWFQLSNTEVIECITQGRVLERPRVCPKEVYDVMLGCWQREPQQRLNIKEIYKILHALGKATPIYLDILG
ALK-L1196M, sequence (Q9UM73 19-1620 L1196M): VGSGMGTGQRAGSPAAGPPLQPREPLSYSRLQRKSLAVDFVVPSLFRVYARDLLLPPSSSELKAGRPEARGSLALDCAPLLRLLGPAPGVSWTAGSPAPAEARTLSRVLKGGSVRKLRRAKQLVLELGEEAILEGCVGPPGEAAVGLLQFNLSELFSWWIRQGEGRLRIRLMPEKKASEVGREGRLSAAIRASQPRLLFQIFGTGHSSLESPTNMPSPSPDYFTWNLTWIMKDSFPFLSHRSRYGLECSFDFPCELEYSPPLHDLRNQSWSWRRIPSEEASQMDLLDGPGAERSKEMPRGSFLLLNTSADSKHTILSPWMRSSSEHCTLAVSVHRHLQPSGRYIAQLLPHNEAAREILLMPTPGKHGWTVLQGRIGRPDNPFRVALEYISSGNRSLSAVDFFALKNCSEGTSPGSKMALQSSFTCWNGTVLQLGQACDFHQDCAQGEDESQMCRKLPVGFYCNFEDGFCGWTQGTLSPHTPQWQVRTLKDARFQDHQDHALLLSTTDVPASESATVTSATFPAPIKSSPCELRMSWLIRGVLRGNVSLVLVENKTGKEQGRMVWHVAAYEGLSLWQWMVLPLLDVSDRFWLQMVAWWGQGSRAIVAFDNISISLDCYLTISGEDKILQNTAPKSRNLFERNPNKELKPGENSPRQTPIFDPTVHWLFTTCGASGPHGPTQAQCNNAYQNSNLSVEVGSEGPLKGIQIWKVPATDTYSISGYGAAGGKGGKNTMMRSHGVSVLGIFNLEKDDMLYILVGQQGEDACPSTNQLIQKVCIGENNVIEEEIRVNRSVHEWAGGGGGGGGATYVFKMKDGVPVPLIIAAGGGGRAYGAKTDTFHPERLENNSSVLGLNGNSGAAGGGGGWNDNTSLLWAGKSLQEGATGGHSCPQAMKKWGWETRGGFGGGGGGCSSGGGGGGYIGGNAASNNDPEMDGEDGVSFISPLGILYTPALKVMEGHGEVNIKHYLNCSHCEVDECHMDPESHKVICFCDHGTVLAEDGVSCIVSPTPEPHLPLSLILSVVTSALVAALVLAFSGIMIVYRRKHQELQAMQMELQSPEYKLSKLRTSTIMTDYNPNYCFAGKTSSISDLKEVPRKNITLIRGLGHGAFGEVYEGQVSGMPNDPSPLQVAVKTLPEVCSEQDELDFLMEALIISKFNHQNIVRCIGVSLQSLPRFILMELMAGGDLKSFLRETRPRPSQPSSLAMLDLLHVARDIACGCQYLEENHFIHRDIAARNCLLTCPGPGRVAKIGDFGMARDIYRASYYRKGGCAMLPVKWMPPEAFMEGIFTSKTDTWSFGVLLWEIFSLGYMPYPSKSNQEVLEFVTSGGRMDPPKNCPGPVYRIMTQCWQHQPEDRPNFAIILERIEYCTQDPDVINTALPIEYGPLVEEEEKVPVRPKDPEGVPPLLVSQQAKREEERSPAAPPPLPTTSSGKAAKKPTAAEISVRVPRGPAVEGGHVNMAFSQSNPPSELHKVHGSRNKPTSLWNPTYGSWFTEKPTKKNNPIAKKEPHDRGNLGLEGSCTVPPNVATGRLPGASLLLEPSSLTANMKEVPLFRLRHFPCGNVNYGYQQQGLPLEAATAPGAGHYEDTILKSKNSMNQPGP
TRKA, sequence (P04629 33-796): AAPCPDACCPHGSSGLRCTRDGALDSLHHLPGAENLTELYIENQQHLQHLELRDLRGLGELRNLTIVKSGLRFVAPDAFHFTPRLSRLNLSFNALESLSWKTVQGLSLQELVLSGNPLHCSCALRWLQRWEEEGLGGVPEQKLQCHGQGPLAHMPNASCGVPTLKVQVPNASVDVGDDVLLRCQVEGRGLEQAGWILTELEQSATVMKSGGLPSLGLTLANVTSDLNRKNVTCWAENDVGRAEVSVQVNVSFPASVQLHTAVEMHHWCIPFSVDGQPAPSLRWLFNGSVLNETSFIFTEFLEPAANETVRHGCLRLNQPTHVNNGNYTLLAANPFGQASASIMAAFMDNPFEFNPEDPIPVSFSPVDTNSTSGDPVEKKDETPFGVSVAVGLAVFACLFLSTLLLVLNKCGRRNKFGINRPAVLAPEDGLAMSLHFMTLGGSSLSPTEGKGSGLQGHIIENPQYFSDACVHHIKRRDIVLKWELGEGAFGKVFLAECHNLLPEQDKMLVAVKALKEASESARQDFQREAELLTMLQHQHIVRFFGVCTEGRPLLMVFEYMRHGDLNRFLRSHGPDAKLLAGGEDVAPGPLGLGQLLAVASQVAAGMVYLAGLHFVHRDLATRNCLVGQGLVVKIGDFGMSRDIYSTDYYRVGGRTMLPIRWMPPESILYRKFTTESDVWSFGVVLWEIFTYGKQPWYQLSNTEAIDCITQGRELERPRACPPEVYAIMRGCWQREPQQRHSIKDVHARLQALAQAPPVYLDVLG

C[C@H]1COC(=O)c2cnn3ccc(nc23)N[C@H](C)c2cc(F)ccc2O1 [Example 1, (1^3E,1^4E,3R,6S)-4^5-fluoro-3,6-dimethyl-5,8-dioxa-2-aza-1(5,3)-pyrazolo[1,5-a]pyrimidina-4(1,2)-benzenacyclononaphan-9-one]
Combination Index (CI) [1]: 0.53-0.67 | IC50 (TRKC): 0.61 nM | IC50 (Ba/F3 ETV6-NTRK2-G639R; test batch marked #): 64.6 nM | IC50 (Ba/F3 ETV6-NTRK2-G639R; test batch marked *): 100 nM | Kp ([2]; brain/plasma, AUC0-inf ratio): 1.14 | AUC(0-inf) ([2]; brain, read-out: AUC0-inf Brain): 20.8 µM·h | AUC(0-inf) ([2]; plasma, read-out: AUC0-inf Plasma): 18.2 µM·h | IC50 (ALK-L1196M): 50 nM | IC50 (TRKA): 0.13 nM | IC50 (TRKB): 0.5 nM

Source: patent US12129258B2, “Diaryl macrocyclic compound and pharmaceutical composition, and use thereof” (PrimeGene (Beijing) Co., Ltd., priority 2018, dated 2024)
